The target in one assay is T1, hBChE (Homo sapiens, UniProt P06276).
T1 construct: purchased University Hradec Kralove, Department of Chemistry, Faculty of Science
Nature of the assay: biochemical. Type of assay: biochemical. Particulars: recombinant BChE, Ellman, 37 °C. On the procedure: (§1) The hAChE and hBChE activities were determined using a modified method of Ellman, as described by Hrabinova and co-workers against recombinant AChE and recombinant BChE (purchased from University Hradec Kralove, Department of Chemistry, Faculty of Science).[43] Other used chemicals were phosphate buffer solution (PBS, pH = 7.4), 5,5′-dithio-bis(2-nitrobenzoic) acid (Ellman’s reagent, DTNB), acetylthiocholine iodide (ATChI), butyrylthiocholine iodide (BTChI), and dimethyl sulfoxide (DMSO) (all chemicals were purchased from Sigma-Aldrich, Prague, Czech Republic).
(§2) Briefly, 8.3 μL of the corresponding enzyme, 283 μL of 5 mM DTNB, and 8.3 μL of the sample dilution in DMSO in different concentrations were added to the microplate. These solutions were incubated for 5 min at 37 °C. Then, 33.3 μL of 10 mM substrate (ATChI or BTChI) was added to initiate the reaction, and the whole reaction mixture was incubated for 2 min at 37 °C. […] This difference after 1 min was used to calculate the percentage of inhibitory potential of the given derivative. Each measurement was repeated three times for every concentration of the compound. 8.3 μL DMSO was used as a blank. The % inhibition was calculated according to the following formula: [drawing 3] where ΔABl is the increase of absorbance of the blank sample and ΔASa is the increase of absorbance of the measured sample.

The next assay has as its target T2, hAChE (Homo sapiens, UniProt P22303).
T2 construct: purchased University Hradec Kralove, Department of Chemistry, Faculty of Science
The assay can be described thus: biochemical. Type of assay: biochemical. As to conditions: recombinant AChE, Ellman, 37 °C. On the procedure: as §1, §2

The test system of assay [1] is MCF-7 (breast adenocarcinoma). Nature of the assay: WST-1 cell proliferation assay, cytotoxicity screening. Type of assay: cell-based, human. Particulars: Homo sapiens, read-out: growth percent (GP) MCF-7. The text has this: (§3) Selected human tumor and nontumor cell lines Jurkat (acute T-cell leukemia), MOLT-4 (acute lymphoblastic leukemia), A549 (lung carcinoma), HT-29 (colorectal adenocarcinoma), PANC-1 (pancreas epithelioid carcinoma), A2780 (ovarian carcinoma), HeLa (cervix adenocarcinoma), MCF-7 (breast adenocarcinoma), SAOS-2 (osteosarcoma) and MRC-5 (nontumor lung fibroblasts) were purchased from European Collection of Authenticated Cell Cultures (ECACC, Salisbury, UK) and cultured according to the provider’s culture method guidelines. […] The cells in low passage number (nontumor primary cell line MRC-5 was used for a maximum of 10 passages and cancer cell lines were used for a maximum of 20 passages) and in an exponential growth phase were used for this study.
(§4) Each cell line was seeded at a previously established optimal density (1 × 10^3 to 50 × 10^3 cells per well) in a 96-well plate (TPP, Trasadingen, Switzerland) and cells were allowed to settle overnight. During screening tests for cytotoxicity, cells were treated with alkaloids at a final concentration of 10 μM for 48 h. Doxorubicin (Sigma-Aldrich, St. Louis, USA), at a concentration of 1 μM, was used as a positive control. At the end of the culture period, the WST-1 proliferation assay (Roche, Basel, Switzerland) was performed according to the manufacturer’s protocol. The absorbance was determined using a Tecan Spark microplate reader (Tecan, Männedorf, Switzerland). Each value is the mean of three independent experiments and represents the percentage of the proliferation of control, nontreated cells (100%). The growth percent (GP) value as the mean of the proliferation decrease was calculated for each cell line and derivative tested.

Assay [2] relates to MOLT-4 (acute lymphoblastic leukemia). The assay is described as above. The assay is classed as cell-based, human. As to conditions: Homo sapiens, read-out: growth percent (GP) MOLT-4.
Source text: as §3, §4

The test system of assay [3] is nine human tumor and one nontumor cell lines. Nature of the assay: Cytotoxicity screening across the whole panel of cell lines. The assay is classed as cell-based. As to conditions: Homo sapiens, read-out: GP value across the tested cell lines.
Source text: Concerning the cytotoxicity of alkaloids isolated from Z. citrina, initially, Prakash and Vedanayaki investigated the MeOH extract of the bulbs for its in vitro cytotoxic activity using the MTT assay against three human cancer cell lines from different tissue origins: cervical cancer (HeLa), breast cancer (MCF-7), and oral squamous carcinoma (SCC-9). […] In this context, and to assess potential negative effects on human cell cultures, compounds 1, and 3–27 were screened in our study for cytotoxicity using a 10 μM single-dose regimen. The results were compared with those using the clinically approved antineoplastic agent doxorubicin at 1 μM. The effect on cell growth was investigated on nine human tumor and one nontumor cell lines, namely Jurkat (acute T-cell leukemia), MOLT-4 (acute lymphoblastic leukemia), A549 (lung carcinoma), HT-29 (colorectal adenocarcinoma), PANC-1 (pancreas epithelioid carcinoma), A2780 (ovarian carcinoma), HeLa (cervix adenocarcinoma), MCF-7 (breast adenocarcinoma), SAOS-2 (osteosarcoma) and MRC-5 (nontumor lung fibroblasts). […] No toxicity is valuable information, especially for compound 18, as it is a potent inhibitor of hAChE and hBChE.[27]
Selected human tumor and nontumor cell lines Jurkat (acute T-cell leukemia), MOLT-4 (acute lymphoblastic leukemia), A549 (lung carcinoma), HT-29 (colorectal adenocarcinoma), PANC-1 (pancreas epithelioid carcinoma), A2780 (ovarian carcinoma), HeLa (cervix adenocarcinoma), MCF-7 (breast adenocarcinoma), SAOS-2 (osteosarcoma) and MRC-5 (nontumor lung fibroblasts) were purchased from European Collection of Authenticated Cell Cultures (ECACC, Salisbury, UK) and cultured according to the provider’s culture method guidelines. All cell lines were maintained at 37 °C in a humidified 5% carbon dioxide and 95% air incubator. The cells in low passage number (nontumor primary cell line MRC-5 was used for a maximum of 10 passages and cancer cell lines were used for a maximum of 20 passages) and in an exponential growth phase were used for this study.
as §4

Assay [4] relates to PANC-1 (pancreas epithelioid carcinoma). The assay can be described thus: WST-1 cell proliferation assay, cytotoxicity screening. As to conditions: Homo sapiens, read-out: growth percent (GP) PANC-1. Type of assay: cell-based.
Source text: as §3, §4

Assay [5] deals with HeLa (cervix adenocarcinoma). The description is as above. Particulars: Homo sapiens, 48 h, read-out: growth percent (GP) HeLa. Type of assay: cell-based.
Source text: as §3, §4

The subject of assay [6] is A2780 (ovarian carcinoma). The assay is described as above. Type of assay: cell-based. Particulars: Homo sapiens, read-out: growth percent (GP) A2780.
Source text: as §3, §4

The subject of assay [7] is MRC-5 (nontumor lung fibroblasts). Described as above. Type of assay: cell-based. As to conditions: Homo sapiens, read-out: growth percent (GP) MRC-5.
Source text: as §3, §4

In a further assay the test system is SAOS-2 (osteosarcoma). The assay is described as above. Type of assay: cell-based. As to conditions: Homo sapiens, read-out: growth percent (GP) SAOS-2.
Source text: as §3, §4

The subject of a further assay is A549 (lung carcinoma). The description is as above. Type of assay: cell-based. As to conditions: Homo sapiens, read-out: growth percent (GP) A549.
Source text: as §3, §4

Assay [8] has as its system HT-29 (colorectal adenocarcinoma). Described as above. Type of assay: cell-based. As to conditions: Homo sapiens, read-out: growth percent (GP) HT-29.
Source text: as §3, §4

Assay [9] relates to Jurkat (acute T-cell leukemia). The assay is described as above. Type of assay: cell-based. Particulars: Homo sapiens, 48 h, read-out: growth percent (GP) Jurkat.
Source text: as §3, §4

[10] abbreviates: MCF7, c = 10 μM, 48 h, % of proliferation of nontreated control.
Setting [11] is: MOLT-4, c = 10 μM, 48 h, % of proliferation of nontreated control.
The mark [12] stands for this setting: 10 μM single dose, 48-h interval, all tested cell lines.
The mark [13] stands for this setting: PANC-1, c = 10 μM, 48 h, % of proliferation of nontreated control.
[14] abbreviates: c = 10 μM, % of proliferation of nontreated control.
The mark [15] stands for this setting: A2780, c = 10 μM, 48 h, % of proliferation of nontreated control.
[16] abbreviates: MRC5, c = 10 μM, 48 h, % of proliferation of nontreated control.
The mark [17] stands for this setting: SAOS-2, c = 10 μM, 48 h, % of proliferation of nontreated control.
Where [18] appears, read: A549, c = 10 μM, 48 h, % of proliferation of nontreated control.
Where [19] appears, read: HT-29, c = 10 μM, 48 h, % of proliferation of nontreated control.

Like-named read-outs stand apart in the source and are kept apart here.

T2 sequence (P22303 32-614): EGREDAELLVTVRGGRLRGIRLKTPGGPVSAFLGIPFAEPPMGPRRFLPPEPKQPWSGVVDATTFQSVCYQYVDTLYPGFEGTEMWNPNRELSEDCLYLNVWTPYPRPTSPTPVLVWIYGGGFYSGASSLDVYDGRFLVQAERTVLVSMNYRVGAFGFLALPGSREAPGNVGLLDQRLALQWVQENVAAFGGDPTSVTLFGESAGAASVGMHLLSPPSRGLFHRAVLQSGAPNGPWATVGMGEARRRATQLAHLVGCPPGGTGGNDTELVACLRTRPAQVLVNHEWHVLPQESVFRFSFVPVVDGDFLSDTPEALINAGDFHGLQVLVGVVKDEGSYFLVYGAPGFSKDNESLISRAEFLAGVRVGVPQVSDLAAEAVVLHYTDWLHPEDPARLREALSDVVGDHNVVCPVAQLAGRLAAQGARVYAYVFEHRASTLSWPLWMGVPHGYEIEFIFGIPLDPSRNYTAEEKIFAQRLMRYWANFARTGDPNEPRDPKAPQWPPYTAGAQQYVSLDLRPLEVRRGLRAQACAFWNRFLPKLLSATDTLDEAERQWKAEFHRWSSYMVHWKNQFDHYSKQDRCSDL
T1 sequence (P06276 29-602): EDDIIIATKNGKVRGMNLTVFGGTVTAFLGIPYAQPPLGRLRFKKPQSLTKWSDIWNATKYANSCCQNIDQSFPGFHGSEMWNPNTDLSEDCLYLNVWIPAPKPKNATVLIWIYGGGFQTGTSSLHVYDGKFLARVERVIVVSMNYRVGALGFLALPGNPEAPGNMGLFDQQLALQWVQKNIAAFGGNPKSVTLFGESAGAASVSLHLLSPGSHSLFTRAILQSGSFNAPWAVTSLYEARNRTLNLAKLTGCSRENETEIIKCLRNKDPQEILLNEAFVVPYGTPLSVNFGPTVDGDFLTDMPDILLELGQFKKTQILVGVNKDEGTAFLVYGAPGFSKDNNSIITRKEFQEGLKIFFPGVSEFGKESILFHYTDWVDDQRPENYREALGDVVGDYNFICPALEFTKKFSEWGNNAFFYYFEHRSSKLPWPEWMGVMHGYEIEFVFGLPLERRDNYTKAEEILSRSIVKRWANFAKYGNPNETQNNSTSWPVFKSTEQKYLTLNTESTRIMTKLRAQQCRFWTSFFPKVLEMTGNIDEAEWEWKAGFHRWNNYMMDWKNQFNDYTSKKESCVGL

Take `COc1cc2c(cc1OC)[C@@]13C=C[C@@H](OC)C[C@@H]1N(C2)C[C@@H]3O` [Compound 1, zephycitrine]: the IC50 at hBChE and on hAChE was more than 100 µM throughout. Moreover, the activity at 10 µM in [1] (setting [10]) is 106%; in assay [2] (setting [11]), 99%; in assay [3] (setting [12]), more than 50%; in [4] (setting [13]) it was 102%; in [5] (setting [14]), 97%; in assay [6] (setting [15]), 98%. For the same molecule, the activity at 10 µM in assay [7] (setting [16]) is 107%; with SAOS-2 (osteosarcoma) (setting [17]), 101%; in the assay with A549 (lung carcinoma) (setting [18]), 100%; in assay [8] (setting [19]) it was 101%; in assay [9] (setting [14]), 111%.

For `COc1cc2c(cc1OC)[C@@H]1[C@H](O)[C@@H](OC)[C@H](O)C3=CCN(C2=O)[C@H]31` [Compound 2, 6-oxonarcissidine], the IC50 at hBChE and at hAChE was more than 100 µM each time.

In the case of `CCO[C@H]1c2cc(OC)c(OC)c(O)c2[C@@]23CC[C@H](OC)C[C@@H]2N1CC3` [Compound 3, 6-O-ethylzephyranine F], the IC50 at hBChE and on hAChE was more than 100 µM throughout. In addition, the activity at 10 µM in [1] (MCF7, 48 h) is 97%; in assay [2] (MOLT-4, 48 h), 101%; in assay [3] (48 h) it was more than 50%; in assay [4] (PANC-1, 48 h) it was 101%; in assay [5] it was 108%; in assay [6] (A2780, 48 h), 110%. Moreover, the activity at 10 µM in assay [7] (MRC5, 48 h) was determined as 104%; with SAOS-2 (osteosarcoma) (SAOS-2, 48 h), 99%; in the assay with A549 (lung carcinoma) (A549, 48 h), 103%; in assay [8] (HT-29, 48 h), 103%; in assay [9] it was 108%.

For the molecule `CCO[C@H]1c2cc(OC)c(OC)cc2[C@@]23CC[C@H](OC)C[C@@H]2N1CC3` [Compound 4, 6-O-ethylzephyranine E], the IC50 at hBChE and on hAChE was more than 100 µM throughout. The activity at 10 µM in [1] (MCF7, 48 h) is 96%; in assay [2] (MOLT-4, 48 h), 101%; in assay [3] (48 h), more than 50%; in assay [4] (PANC-1, 48 h), 88%; in [5], 109%; in assay [6] (A2780, 48 h), 85%. Moreover, the activity at 10 µM in [7] (MRC5, 48 h) was 99%; in the assay on SAOS-2 (osteosarcoma) (SAOS-2, 48 h) it was 98%; in the assay on A549 (lung carcinoma) (A549, 48 h) it was 100%; in assay [8] (HT-29, 48 h), 91%; in assay [9], 90%.

Turning to `COc1cc2c(cc1OC)[C@@H]1[C@H](O)[C@@H](OC)[C@H](O)C3=CCN(C2)[C@H]31` [Compound 6, narcissidine], the IC50 on hBChE and at hAChE was more than 100 µM each time. The activity at 10 µM is 103% in assay [1] (setting [10]); 101% in [2] (setting [11]); more than 50% in assay [3] (setting [12]); 102% in assay [4] (setting [13]); 123% in assay [5] (setting [14]); 101% in assay [6] (setting [15]). The activity at 10 µM stood at 101% in [7] (setting [16]); 101% with SAOS-2 (osteosarcoma) (setting [17]); 113% in the assay with A549 (lung carcinoma) (setting [18]); 108% in assay [8] (setting [19]); 111% in [9] (setting [14]).

On to `COc1cc2c(cc1OC)[C@@H]1[C@H](O)[C@@H](O)C=C3CCN(C2)[C@H]31` [Compound 24], for which the activity at 10 µM was 104% in assay [1] (MCF7, 48 h); 103% in assay [2] (MOLT-4, 48 h); more than 50% in assay [3] (48 h); 109% in assay [4] (PANC-1, 48 h); 116% in assay [5]; 99% in assay [6] (A2780, 48 h). Moreover, the activity at 10 µM stood at 96% in assay [7] (MRC5, 48 h); 98% in the assay with SAOS-2 (osteosarcoma) (SAOS-2, 48 h); 104% in the assay on A549 (lung carcinoma) (A549, 48 h); 114% in assay [8] (HT-29, 48 h); 109% in assay [9].

As to `COc1cc2c(cc1O)[C@@H]1[C@H](O)[C@@H](OC)C=C3CCN(C2)[C@H]31` [Compound 25], the activity at 10 µM is 102% in assay [1] (setting [10]); 88% in [2] (setting [11]); more than 50% in assay [3] (setting [12]); 83% in assay [4] (setting [13]); 110% in assay [5] (setting [14]); 125% in assay [6] (setting [15]). The activity at 10 µM in assay [7] (setting [16]) came to 92%; in the assay with SAOS-2 (osteosarcoma) (setting [17]) it was 71%; in the assay with A549 (lung carcinoma) (setting [18]), 83%; in assay [8] (setting [19]) it was 94%; in assay [9] (setting [14]), 91%.

Values taken from article PMC11443518, “Undescribed Amaryllidaceae Alkaloids from Zephyranthes citrina and Their Cytotoxicity” (Journal of Natural Products, 2024).
